We go through 5 compounds from patent US20150119327A1, “DRUG SCREENING PLATFORM FOR RETT SYNDROME” (THE REGENTS OF THE UNIVERSITY OF CALIFORNIA, priority 2012, published 2015).

For assay [1], the target named is T1, TRPC6 (Homo sapiens, UniProt Q9Y210).
T1 sequence (Q9Y210 1-931): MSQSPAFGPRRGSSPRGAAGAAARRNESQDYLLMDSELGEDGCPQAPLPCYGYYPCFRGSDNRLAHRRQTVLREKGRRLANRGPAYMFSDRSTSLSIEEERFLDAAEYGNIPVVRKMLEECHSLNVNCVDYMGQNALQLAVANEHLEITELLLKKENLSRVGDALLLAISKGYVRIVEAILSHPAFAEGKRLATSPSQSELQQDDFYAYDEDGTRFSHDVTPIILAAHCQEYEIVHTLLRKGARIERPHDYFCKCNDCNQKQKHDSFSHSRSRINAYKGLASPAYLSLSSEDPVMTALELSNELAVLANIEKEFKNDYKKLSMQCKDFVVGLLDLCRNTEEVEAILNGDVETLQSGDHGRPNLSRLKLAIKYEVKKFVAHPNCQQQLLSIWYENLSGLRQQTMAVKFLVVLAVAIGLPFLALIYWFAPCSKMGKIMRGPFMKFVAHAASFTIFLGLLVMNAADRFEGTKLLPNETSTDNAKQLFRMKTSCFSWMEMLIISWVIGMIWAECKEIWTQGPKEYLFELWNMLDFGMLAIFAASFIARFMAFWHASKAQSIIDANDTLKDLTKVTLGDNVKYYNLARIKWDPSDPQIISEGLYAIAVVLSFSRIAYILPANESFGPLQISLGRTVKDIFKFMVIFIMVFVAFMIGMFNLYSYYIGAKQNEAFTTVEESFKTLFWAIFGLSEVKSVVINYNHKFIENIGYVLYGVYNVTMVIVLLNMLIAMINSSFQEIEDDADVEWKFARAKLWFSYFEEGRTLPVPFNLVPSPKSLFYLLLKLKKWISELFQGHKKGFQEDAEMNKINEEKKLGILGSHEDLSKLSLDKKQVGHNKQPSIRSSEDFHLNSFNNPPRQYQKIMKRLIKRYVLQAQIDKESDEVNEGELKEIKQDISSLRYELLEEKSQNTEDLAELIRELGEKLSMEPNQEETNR
The settings on record: cited from earlier work.

Assay [2] concerns Na^+ current. It is filed as cell-based, human.
Assay [3] relates to K^+ current. Put plainly: Whole-cell patch clamp recording of K+ current in iPSC-derived neuron. It is filed as cell-based, human. The settings on record: 20 mM. As to the method:
Whole-cell patch clamp recordings were performed from cells cultured in the absence of astrocytes after approximately 6 weeks of differentiation. Before recordings, the growth media was removed and replaced with a bath solution comprised of (in mM): 130 NaCl, 3 KCl, 1 CaCl2, 1 MgCl2, HEPES, and 10 glucose (pH 7.4) at room temperature (22-24° C.). Electrodes for whole cell recording were pulled on a Flaming/Brown micropipette puller (Model P-87, Sutter Instrument, Novato, Calif.) from filamented borosilicate capillary glass (1.2 mm OD, 0.69 mm ID, World Precision Instruments, Sarasota, Fla.). The electrodes were fire-polished, and resistances were typically 2-5 MΩ for voltage-clamp experiments and 7-9 MΩ for current-clamp experiments. The pipette solution contained (in mM): 138 KCl, 0.2 CaCl2, 1 MgCl2, 10 HEPES (Na^+ salt), and 10 EGTA, (pH 7.4). The osmolarity of all solutions was adjusted to 290 mOsM. All chemicals were purchased from Sigma-Aldrich (St. Louis, Mo.) except MgCl2 (J.T. Baker, Phillipsburg, N.J.). Current traces in voltage clamp were leak-subtracted. Liquid junction potentials were nulled for each individual cell with the Axopatch 1C amplifier (Molecular Devises, Sunnyvale, Calif.).
On the technique in general: The patch-clamp technique gives a direct electrical read-out from membranes.

For assay [4], the system named is TRPC6-mutant neurons. Put plainly: VGLUT1 puncta / glutamatergic synapse number in TRPC6-mutant neurons (rescue). In kind it is cell-based, human. The settings on record: 10 ηg/mL for two weeks. As to the method:
Neuronal tracing was performed on neurons for which that the shortest dendrite was at least three-times longer than the cell soma diameter, using a semi-automatic ImageJ plug-in (NeuroJ). Spines and VGLUT1 puncta were quantified after three-dimensional reconstruction of z-stack confocal images. Only neurons with spines were scored. Pictures were taken randomly for each individual and from two different experiments, using at least two different clones. Quantification was done blindly to the genotype of the cells. All experiments were performed with independent clones and different controls. For the rescue experiments, 10 ηg/mL of IGF1 (Peprotech) was added to neuronal cultures for 2 weeks.

Assay [5] concerns human neurons. Put plainly: Synapse quantification by Odyssey in-cell western in 96- or 24-well plates. It is filed as cell-based. The following applies: preliminary data. The source says:
Fibroblasts from patients are reprogrammed to a pluripotent state and further differentiated into neuro progenitor cells (NPCs). These NPCs can be expanded in appropriated culture conditions and, under the right signals, induced to differentiated into postmitotic neurons (see schematic; FIG. 11). Several adjustments were done on the neuronal differentiation protocol, reducing by half the time needed to generate neurons from NPCs. Such adjustments include specific factors and cell manipulations at different stages of the protocol. At this stage, disease neurons can reveal a phenotype that is related to the mutations on the MeCP2 gene. We focused on synapse quantification. Instead of manual synapse counting, we are using an Odyssey machine that can estimate the number of synapses by detecting specific wavelengths in a 96- or 24-well plates (see FIG. 11). […] Alternatively, we are using specific synaptic tools to visualize synaptogeneses in real time that could be detected by any time-lapse fluorescence microscope.

For assay [6], the system named is RTT-like symptoms. The settings on record: mouse model; cited from earlier work.
Assay [7] concerns human neurons. The following applies: cited from earlier work.

For `O=C(O)c1ccccc1Nc1cccc(C(F)(F)F)c1` [FFA, flufenamic acid], in assay [1], the “currents through TRPC6 channel” value is “increases the amplitude”.

Take `CC(C)=CCC[C@]1(C)[C@@H](CC=C(C)C)C[C@@]2(CC=C(C)C)C(=O)[C@]1(C(=O)C(C)C)C(=O)C(CC=C(C)C)=C2O` [Hyperforin, hyperforin]: the TRPC6 activation entry in assay [1] is “specifically activates”.

Consider `NC1=N[C@H](O)[C@H]2[C@H]3O[C@]4(O)O[C@@H]([C@@H](O)[C@@]2(N1)[C@@H]4O)[C@]3(O)CO` [Tetrodotoxin (TTX), Tetrodotoxin], for which the “Na^+ current” value in assay [2] is listed as “blocked”.

On to `CC[N+](CC)(CC)CC` [tetraethalammonium (TEA), tetraethalammonium], for which, in assay [3], the “K^+ current” value is given as “blocked”.

Consider “IGF-1: Insulin-like growth factor 1 (IGF-1), also referred to as somatomedin C”, for which the glutamatergic synapse number entry in assay [4] is “increase”. For the same compound, in assay [5], the “synapse number estimate (Odyssey), response to drug” value is “small alterations”. Also, in assay [6], the RTT-like symptoms result is listed as “reversal”. Moreover, in assay [7], the RTT-like symptoms entry is “reversal” and the synapse number result is recorded as “increase”.
